Assay results: ChEMBL document CHEMBL3431459, “Roche carnitine palmitoyltransferase modulator screening data (supplementary data associated with the publication CHEMBL2216752)”
≈ marks a conversion by molar mass, not a printed value.

Key:
[1] = target: T1, Carnitine O-palmitoyltransferase 2, mitochondrial (Homo sapiens, UniProt P23786); assay: (§1) SUPPLEMENTARY: Inhibition of Carnitine palmitoyltransferase 2
T1 sequence (P23786 whole entry): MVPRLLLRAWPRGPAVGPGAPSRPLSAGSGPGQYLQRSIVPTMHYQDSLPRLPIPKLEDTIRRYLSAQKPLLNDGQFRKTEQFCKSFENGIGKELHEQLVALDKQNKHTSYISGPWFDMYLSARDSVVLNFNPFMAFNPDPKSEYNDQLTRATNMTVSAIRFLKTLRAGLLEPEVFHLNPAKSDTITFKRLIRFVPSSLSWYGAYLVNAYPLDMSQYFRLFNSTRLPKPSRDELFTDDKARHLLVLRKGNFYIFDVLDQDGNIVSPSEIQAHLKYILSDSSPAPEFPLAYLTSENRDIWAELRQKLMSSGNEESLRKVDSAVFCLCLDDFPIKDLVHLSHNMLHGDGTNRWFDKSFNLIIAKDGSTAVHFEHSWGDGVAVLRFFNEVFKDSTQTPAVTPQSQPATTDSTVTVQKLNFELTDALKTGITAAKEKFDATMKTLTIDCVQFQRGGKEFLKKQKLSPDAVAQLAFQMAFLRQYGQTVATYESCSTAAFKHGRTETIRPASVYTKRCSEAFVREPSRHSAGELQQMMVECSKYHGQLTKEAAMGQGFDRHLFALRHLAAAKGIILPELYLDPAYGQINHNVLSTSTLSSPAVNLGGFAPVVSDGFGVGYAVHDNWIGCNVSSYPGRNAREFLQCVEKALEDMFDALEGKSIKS

[2] = target: T2, Carnitine O-palmitoyltransferase 2, mitochondrial (Rattus norvegicus, UniProt P18886); assay: as §1
T2 sequence (P18886 whole entry): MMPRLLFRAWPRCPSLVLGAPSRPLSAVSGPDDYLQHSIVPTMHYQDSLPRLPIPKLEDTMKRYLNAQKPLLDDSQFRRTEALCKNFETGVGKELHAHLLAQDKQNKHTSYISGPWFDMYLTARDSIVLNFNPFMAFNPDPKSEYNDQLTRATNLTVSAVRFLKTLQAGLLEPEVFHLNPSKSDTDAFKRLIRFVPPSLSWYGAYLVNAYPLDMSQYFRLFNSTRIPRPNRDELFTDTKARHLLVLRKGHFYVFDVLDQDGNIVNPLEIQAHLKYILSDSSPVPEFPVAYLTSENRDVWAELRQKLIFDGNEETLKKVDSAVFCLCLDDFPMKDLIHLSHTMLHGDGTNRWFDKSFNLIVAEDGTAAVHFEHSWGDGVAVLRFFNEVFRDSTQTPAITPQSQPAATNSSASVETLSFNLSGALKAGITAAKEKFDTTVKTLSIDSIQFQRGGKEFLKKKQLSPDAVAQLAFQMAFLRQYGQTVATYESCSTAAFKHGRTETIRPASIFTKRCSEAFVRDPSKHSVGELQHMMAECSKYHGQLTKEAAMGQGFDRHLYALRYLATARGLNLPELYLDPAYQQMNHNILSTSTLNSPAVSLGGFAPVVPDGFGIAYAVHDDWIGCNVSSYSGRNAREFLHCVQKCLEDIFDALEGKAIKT

[3] = target: T3, Carnitine O-palmitoyltransferase 1, liver isoform (Homo sapiens, UniProt P50416); assay: (§2) SUPPLEMENTARY: Inhibition of Carnitine palmitoyltransferase 1, liver isoform
T3 sequence (P50416 whole entry): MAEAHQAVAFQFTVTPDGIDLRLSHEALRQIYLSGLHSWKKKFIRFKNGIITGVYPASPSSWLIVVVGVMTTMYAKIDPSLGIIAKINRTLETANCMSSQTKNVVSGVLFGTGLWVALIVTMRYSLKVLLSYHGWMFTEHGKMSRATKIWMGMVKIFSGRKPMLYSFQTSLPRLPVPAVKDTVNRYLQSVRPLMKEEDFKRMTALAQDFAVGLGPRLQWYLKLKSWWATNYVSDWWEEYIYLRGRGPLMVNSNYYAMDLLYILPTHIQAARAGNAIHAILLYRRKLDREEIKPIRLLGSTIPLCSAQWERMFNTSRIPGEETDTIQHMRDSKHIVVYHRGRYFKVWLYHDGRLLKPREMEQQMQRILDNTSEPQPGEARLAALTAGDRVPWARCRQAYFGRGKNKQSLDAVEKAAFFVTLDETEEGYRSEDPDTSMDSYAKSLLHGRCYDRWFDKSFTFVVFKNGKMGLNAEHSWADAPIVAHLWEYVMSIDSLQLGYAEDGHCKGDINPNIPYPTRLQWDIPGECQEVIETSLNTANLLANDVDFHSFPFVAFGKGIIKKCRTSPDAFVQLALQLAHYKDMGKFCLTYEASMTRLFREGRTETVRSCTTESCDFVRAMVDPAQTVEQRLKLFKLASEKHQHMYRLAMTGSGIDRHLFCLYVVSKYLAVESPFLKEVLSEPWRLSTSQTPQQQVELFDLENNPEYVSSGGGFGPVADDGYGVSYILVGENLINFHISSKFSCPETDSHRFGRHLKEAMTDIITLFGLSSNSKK

[4] = target: T4, Carnitine O-palmitoyltransferase 1, liver isoform (Rattus norvegicus, UniProt P32198); assay: as §2
T4 sequence (P32198 whole entry): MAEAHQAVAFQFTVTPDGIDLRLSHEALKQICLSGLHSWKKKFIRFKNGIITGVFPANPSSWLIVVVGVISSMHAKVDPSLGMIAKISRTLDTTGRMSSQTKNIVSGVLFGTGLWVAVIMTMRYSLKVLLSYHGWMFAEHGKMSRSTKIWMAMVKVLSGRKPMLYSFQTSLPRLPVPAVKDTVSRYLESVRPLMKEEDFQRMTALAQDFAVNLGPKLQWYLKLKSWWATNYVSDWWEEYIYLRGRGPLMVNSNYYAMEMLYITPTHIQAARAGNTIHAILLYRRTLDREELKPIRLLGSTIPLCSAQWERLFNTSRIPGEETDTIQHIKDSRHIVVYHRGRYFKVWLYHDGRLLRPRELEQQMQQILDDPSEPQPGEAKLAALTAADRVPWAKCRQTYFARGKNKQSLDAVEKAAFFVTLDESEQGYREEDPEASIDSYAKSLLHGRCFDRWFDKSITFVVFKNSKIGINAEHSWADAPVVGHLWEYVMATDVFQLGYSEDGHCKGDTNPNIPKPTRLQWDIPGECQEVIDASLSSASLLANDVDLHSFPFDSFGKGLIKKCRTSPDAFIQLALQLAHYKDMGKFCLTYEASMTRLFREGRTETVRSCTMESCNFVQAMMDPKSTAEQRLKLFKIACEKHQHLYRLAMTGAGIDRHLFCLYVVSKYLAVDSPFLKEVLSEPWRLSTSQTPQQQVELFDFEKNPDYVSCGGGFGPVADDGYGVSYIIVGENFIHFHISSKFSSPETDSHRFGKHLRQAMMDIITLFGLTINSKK

[5] = SUPPLEMENTARY: Lyophilisation Solubility Assay (LYSA); assay type: physicochemical; conditions: read-out: Kinetic_solubility
[6] = SUPPLEMENTARY: Lipophilicity (log D) Determination by high-throughput shake-flask; assay type: physicochemical; conditions: octanol/water
[7] = SUPPLEMENTARY: PAMPA permeability assay; assay type: physicochemical; conditions: read-out: Permeability
[8] = target: T5, Carnitine O-palmitoyltransferase 1, muscle isoform (Homo sapiens, UniProt Q92523); assay: SUPPLEMENTARY: Inhibition of Carnitine palmitoyltransferase 1, muscle isoform; design: species or system Muscle tissue
T5 sequence (Q92523 whole entry): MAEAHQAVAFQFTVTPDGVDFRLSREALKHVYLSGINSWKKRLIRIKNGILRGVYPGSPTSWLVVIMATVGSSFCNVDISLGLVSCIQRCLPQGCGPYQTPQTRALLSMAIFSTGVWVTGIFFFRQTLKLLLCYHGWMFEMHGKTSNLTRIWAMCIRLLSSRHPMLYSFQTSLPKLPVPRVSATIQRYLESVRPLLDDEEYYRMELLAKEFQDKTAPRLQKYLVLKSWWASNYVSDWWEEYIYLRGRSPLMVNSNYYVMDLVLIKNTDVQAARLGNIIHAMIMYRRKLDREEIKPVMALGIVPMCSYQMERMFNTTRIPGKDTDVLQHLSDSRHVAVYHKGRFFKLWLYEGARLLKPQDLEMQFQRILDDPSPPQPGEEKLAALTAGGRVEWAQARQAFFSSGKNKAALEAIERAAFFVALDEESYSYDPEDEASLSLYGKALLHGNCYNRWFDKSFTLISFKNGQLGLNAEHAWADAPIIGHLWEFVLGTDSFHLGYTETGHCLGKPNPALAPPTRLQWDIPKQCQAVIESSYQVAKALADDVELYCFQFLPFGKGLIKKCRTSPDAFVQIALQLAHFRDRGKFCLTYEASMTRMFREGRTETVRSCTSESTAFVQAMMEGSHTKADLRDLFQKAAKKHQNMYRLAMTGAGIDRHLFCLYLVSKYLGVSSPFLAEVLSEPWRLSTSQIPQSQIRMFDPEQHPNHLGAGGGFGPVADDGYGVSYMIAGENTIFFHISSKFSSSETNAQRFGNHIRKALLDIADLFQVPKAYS

Compound | IC50 [1] | IC50 [2] | IC50 [3] | IC50 [4] | solubility kinetic [5] | logD [6] | Papp [7] | IC50 [8]
COc1ccc(Cl)cc1S(=O)(=O)N1CC(C(=O)O)Oc2ccc(C(=O)Nc3cccc(F)c3)cc21 (centres undefined) | > 100 µM | > 100 µM | 0.0162 µM | 0.0301 µM | 521 µg/mL (≈ 1000 µM) | -0.02 | 0.14 ×10⁻⁶ cm/s | –
COc1ccc(Cl)cc1S(=O)(=O)N1CCOc2ccc(C(=O)Nc3nc(CC(=O)O)cs3)cc21 | > 100 µM | > 100 µM | 0.0505 µM | – | 26 µg/mL (≈ 49.6 µM) | -0.01 | 1.62 ×10⁻⁶ cm/s | 0.423 µM
COc1ccc(Cl)cc1CN1C(=O)OC(C)(C)c2ccc(C(=O)Nc3ccc(CC(=O)O)c(Cl)c3)cc21 | > 100 µM | > 100 µM | 0.331 µM | – | 25 µg/mL (≈ 46 µM) | 1.83 | 1.36 ×10⁻⁶ cm/s | 1.87 µM
O=C(NCc1ccccc1)[C@H]1CCCCN1C(=O)COc1ccccc1 | > 100 µM | > 100 µM | 2.55 µM | – | 43 µg/mL (≈ 122 µM) | 2.51 | 7.12 ×10⁻⁶ cm/s | > 100 µM
CN(Cc1ccccc1)C(=O)[C@H]1CCCCN1C(=O)COc1ccccc1 | 2.67 µM | 6.84 µM | 1.94 µM | – | 112 µg/mL (≈ 306 µM) | 2.62 | 9.1 ×10⁻⁶ cm/s | > 100 µM
COc1ccc(Cl)cc1S(=O)(=O)N1COc2c(C)cc(C(=O)Nc3ccc(CC(=O)O)cc3)cc21 | > 100 µM | > 100 µM | 0.375 µM | – | 509 µg/mL (≈ 985 µM) | 0.65 | 3.17 ×10⁻⁶ cm/s | 2.29 µM
COc1ccc(Cl)cc1CN1C(=O)OCc2ccc(C(=O)Nc3ccc(CC(=O)O)cc3)cc21 | > 100 µM | > 100 µM | 0.294 µM | – | 44 µg/mL (≈ 91.5 µM) | 0.06 | 1.48 ×10⁻⁶ cm/s | 13 µM
NS(=O)(=O)c1ccc2c(c1)CN(C(=O)[C@H]1CCCCN1C(=O)COc1ccccc1)CC2 | 7.15 µM | 45.6 µM | 0.824 µM | – | 175 µg/mL (≈ 382 µM) | 1.41 | 4.46 ×10⁻⁶ cm/s | > 100 µM
O=C(c1nc([C@H]2CCCCN2C(=O)COc2ccccc2)no1)N1CCOCC1 | 34.2 µM | > 100 µM | 0.315 µM | – | > 467 µg/mL | 1.47 | 8.06 ×10⁻⁶ cm/s | > 100 µM
COc1ccc(Cl)cc1S(=O)(=O)N(C)c1cccc(C(=O)Nc2nc(CC(=O)O)cs2)c1 | > 100 µM | > 100 µM | 0.0614 µM | – | > 549 µg/mL | 0.02 | 2.48 ×10⁻⁶ cm/s | 1.44 µM
CCc1ccc(CCOc2ccc(CC3SC(=O)NC3=O)cc2)nc1 (centres undefined) [PIOGLITAZONE] | > 100 µM | > 100 µM | > 10 µM | – | < 1 µg/mL | 4 | 7.49 ×10⁻⁶ cm/s | > 100 µM
CN(CCOc1ccc(CC2SC(=O)NC2=O)cc1)c1ccccn1 (centres undefined) [ROSIGLITAZONE] | > 100 µM | > 100 µM | > 10 µM | – | 92 µg/mL (≈ 257 µM) | 2.49 | 7.65 ×10⁻⁶ cm/s | > 100 µM
